Measured values as given in patent US8609718B2, “Pharmaceutical composition used in treatment of hyperproliferative skin conditions and malignant melanomas comprising pachastrissamine as active ingredient” (Catholic University Industry Academy Cooperation Foundation, priority 2009, dated 2013).

How the values were obtained:
ERK = assay: Western blotting of ERK activity (pERK) in HaCaT; format: cell-based, human; settings: pachastrissamine 10 μg/ml, U0126 20 nM, 30 minutes, FIG. 3C
Experimental: A HaCaT cell line was cultured in the same manner as described in Example 1. […] The last group was a negative control group (−) and was added with nothing.

FoxO3a = assay: Western blotting of FoxO3a protein expression in HaCaT; format: cell-based, human; settings: for level of protein expression of FoxO3a, single material: treated as in Example 3-2, compared to negative control, FIG. 4E
Experimental: A HaCaT cell line was cultured in the same manner as described in Example 1. […] Then, western blotting was carried out by using FoxO3a antibody as a primary antibody.
Then, western blotting was carried out by using FoxO3a antibody as a primary antibody so as to carry out comparative analysis on the level of protein expression.

FoxO3a / beta-catenin = settings: U0126, 30 minutes, FIG. 5C
Experimental: In a HaCaT cell line, pachastrissamine's effect on FoxO3a protein which can be degraded over-expression of beta-catenin was researched. In the same manner as described in Example 1, the HaCaT cell line was cultured. The cultured cells were transfected with beta-catenin so as to induce over-expression of beta-catenin. The cultured cells were plated onto a 6-well plate at a concentration of 3×10^5 cells/well and cultured for 24 hours. After the culturing, after about 12 hours of serum starvation, cells with over-expression of beta-catenin and other cells with transfection of vector were treated with U0126 (ERK inhibitor), and reacted for 30 minutes.

HaCaT cell = assay: Phase-contrast microscope morphology analysis of surviving cells; format: cell-based, human; settings: lithium chloride only, 300 nM; 24 hours; FIG. 2D
Experimental: HaCaT, B16F10 and A375 cell lines were cultured in the same manner as described in Example 1. The cultured HaCaT cell line was plated onto a 60 mm plate at a concentration of 5×10^4 cells/well, and cultured in a CO2 incubator (37° C., 5%) for 24 hours. The cultured respective cells were divided into 4 groups. One group was added with only pachastrissamine (PA) at a concentration of 10 μg/ml; another group was added with lithium chloride (apoptosis inhibiting material) (at a final concentration of 300 nM) as well as pachastrissamine at a concentration of 10 μg/ml (PA+Li); and a third group was added with only lithium chloride (Li). The last group was a negative control group (Con) and was added with nothing. These groups were cultured in a CO2 incubator (37° C., 5%) for 24 hours, and then the number of cells were measured in the same manner as described in Example 2-2.
The four groups of HaCaT cell samples were washed with PBS, and then surviving cells were subjected to morphology analysis through a phase-contrast microscope (see FIG. 2f).

GSK3-beta / beta-catenin = assay: Western blotting of pGSK3-beta, GSK3-beta, pCatenin and Catenin in HaCaT; format: cell-based, human; settings: pachastrissamine 10 μg/ml, LiCl 300 nM, 30 minutes, FIG. 5A
Experimental: The pachastrissamine's effect on beta-catenin protein expression was researched. In the same manner as described in Example 1, a HaCaT cell line was cultured.

HaCaT cell line = assay: MTT cell viability analysis (cytotoxicity), HaCaT; format: cell-based, human; settings: 0, 0.9, 1.8, 3.7, 7.5, 10 μg/ml, 24 hours, FIG. 1
Experimental: (§1) Pachastrissamine's cytotoxicity on a HaCaT cell line and a malignant melanoma cell line was researched through MTT cell viability analysis.
(§2) First, each of a HaCaT cell line (German Cancer Research, obtained from prof. N. Fuseni, Germany), and two kinds of malignant melanoma cell lines, B16F10 (B16) and A375 were inoculated into a DMEM (Dulbecco's Modified Eagle's Medium) culture medium added with 10% FBS (Thermo Fisher Scientific Inc.), 100 unit/ml penicillin, and 100 μg/ml streptomycin, and then cultured in a CO2 incubator (Form a Scientific, Inc.) (37° C., 5%).
(§3) The cultured HaCaT, B16F10, and A375 cells were plated onto a 96-well plate at a concentration of 5×10^4 cells/well, and cultured in a CO2 incubator (37° C., 5%) for 24 hours. The cells in respective wells were treated with pachastrissamine and phytosphingosine at various concentrations of 0, 0.9, 1.8, 3.7, 7.5, 10 μg/ml, and cultured in a CO2 incubator (37° C., 5%) for 24 hours. After the culturing, in a state where the culture medium existed, each well was added with 5 mg/ml MTT reagent at a concentration of 20 μl/[…], and cultured in an incubator for 2 hours. After 2 hours, the culture medium was removed, and each well was added with 150 μl of DMSO (dimethyl sulfoxide). Then, a spectrophotometer was used to measure the absorbance at 540 nm, thereby analyzing the cell viability. Herein, the cell viability was represented as a relative value with respect to 100% of cell viability in a control group not treated with pachastrissamine and phytosphingosine.

[1] = test system: malignant melanoma cell line B16F10; assay: MTT cell viability analysis (cytotoxicity), B16F10; format: cell-based; settings: 0, 0.9, 1.8, 3.7, 7.5, 10 μg/ml, 24 hours, FIG. 1
Experimental: as §1, §2, §3

[2] = test system: malignant melanoma cell line A375; assay: MTT cell viability analysis (cytotoxicity), A375; format: cell-based; settings: 0, 0.9, 1.8, 3.7, 7.5, 10 μg/ml, 24 hours, FIG. 1
Experimental: as §1, §2, §3

AKT = assay: Western blotting of AKT phosphorylation; format: cell-based; settings: HaCaT, B16F10, A375; 10 μg/ml pachastrissamine, 5 μg/ml phytosphingosine; 30 minutes; FIGS. 3A, 3B
Experimental: HaCaT, B16F10 and A375 cell lines were cultured in the same manner as described in Example 1. […] 30 minutes later, and 60 minutes later, each of the cell lines was resuspended in RIPA buffer [12 mM EDTA, 137 mM NaCl, 20 mM Tris-HCl (pH 8.0), 1 mM Na3VO4 (Sigma-Aldrich, USA) 10 mM NaF (Sigma), 1 mM PMSF (Sigma), 1% Triton X-100, 10% glycerol, protease inhibiting cocktail (Roche, Germany)], and then put on ice for 30 minutes so that the cells can be completely lysed. The lysate was centrifuged at 14000 rpm for 30 minutes, and the supernatant was collected. A BCA protein analysis kit (Pierce, Rockford, Ill.) was used to determine the concentration of each sample, and the sample was subjected to electrophoresis (SDS-PAGE). Western blotting was carried out on the protein isolated by the electrophoresis. After electrophoresis of the sample, the protein was transferred to a polyvinylidene fluoride membrane (Pall Corporation). Then, after blocking the membrane at room temperature for one hour using 5% BSA solution (Amresco, USA), it was treated with primary antibodies and reaction was carried out for 12 hours at 4° C. The primary antibodies were AKT antibody and Actin antibody (Cell Signaling Technology, Beverly, Mass.), which are antibodies associated in cell proliferation-related signaling. After reaction with primary antibodies, it was washed for about 30 minutes and further reacted for 1 hour at room temperature by treating with HRP-conjugated secondary antibodies. Then, after washing sufficiently for over 30 minutes, protein was identified using an ECL detection kit (intron Biotechnology).

p-FoxO3a (Ser 253) = assay: Western blotting of p-FoxO3a (Ser 253); format: cell-based; settings: HaCaT, A375, B16F10; 10 μg/ml; 30 minutes; FIGS. 4B, 4C
Experimental: In the same manner as described in Example 4-1, a HaCaT cell line and malignant melanoma cell lines (A375 and B16F10) were treated with pachastrissamine and phytosphingosine at a concentration of 10 μg/ml for 30 minutes and 60 minutes, respectively. Then, western blotting was carried out using p-FoxO3a (Ser 253) antibody.

N#CC(=C(/N)Sc1ccccc1N)/C(C#N)=C(\N)Sc1ccccc1N [U0126, reference compound]
ERK activation (phosphorylation of ERK) (ERK): almost completely inhibited the phosphorylation of ERK | level of protein expression of FoxO3a, single material (FoxO3a): significantly increased | expression level of FoxO3a protein reduced by over-expression of beta-catenin (FoxO3a / beta-catenin; HaCaT transfected with beta-catenin): restored | protein expression level of beta-catenin (FoxO3a / beta-catenin; HaCaT with or without over-expression of beta-catenin): no effect

COc1cccc(-c2cc(=O)c3ccccc3o2)c1N [PD98059, reference compound]
level of protein expression of FoxO3a, single material (FoxO3a): significantly increased

[Cl-].[Li+] [lithium chloride, reference compound]
cell division extent (HaCaT cell): increased | phosphorylation of GSK3-beta (GSK3-beta / beta-catenin): GSK3-beta was phosphorylated | phosphorylation of beta-catenin (GSK3-beta / beta-catenin): inhibited the phosphorylation of beta-catenin

CCCCCCCCCCCCCC[C@@H](O)[C@@H](O)[C@@H](N)CO [phytosphingosine, reference compound]
cell viability (number of surviving cells) with increasing concentration (HaCaT cell line): the number of surviving cells was reduced | cell viability (number of surviving cells) with increasing concentration [1]: the number of surviving cells was reduced | cell viability (number of surviving cells) with increasing concentration [2]: the number of surviving cells was reduced | phosphorylation of AKT after 30 minutes (AKT): reduction of phosphorylation of AKT | protein expression level of FoxO3a compared to control group (FoxO3a; 5 and 10 μg/ml, 24 hours, FIG. 4A): increased | amount of expressed p-FoxO3a after 30 minutes (p-FoxO3a (Ser 253)): reduced
